Test results from article PMC5050486 (Scientific Reports, 2016).
“Also recorded” adds a separate entry of the source. Counter-ions that a name gives are not always drawn. Like-named read-outs stand apart in the source and are kept apart here. Where a SMILES comes first, the peptide text is derived from it. Where no end group is shown, it is not given here.

Legend:
[1] = target: anthrax LF (Bacillus anthracis, UniProt P15917); assay: biochemical; settings: for inhibition at 33 µM: read-out: Percent Inhibition with 33 μM of drug, LF
[2] = target: T1, human furin (Homo sapiens, UniProt P09958); assay: Host protease FRET test, furin; type: biochemical; settings: for inhibition at 33 µM: read-out: Percent Inhibition with 33 μM of drug, Furin
T1 construct: purchased New England Biolabs

[3] = target: T2, calpain 1 (Homo sapiens, UniProt P07384); assay: Host protease FRET test, calpain; type: biochemical; settings: for inhibition at 33 µM: read-out: Percent Inhibition with 33 μM of drug, Calpain
T2 construct: purchased BioVision
T2 sequence (P07384 1-714): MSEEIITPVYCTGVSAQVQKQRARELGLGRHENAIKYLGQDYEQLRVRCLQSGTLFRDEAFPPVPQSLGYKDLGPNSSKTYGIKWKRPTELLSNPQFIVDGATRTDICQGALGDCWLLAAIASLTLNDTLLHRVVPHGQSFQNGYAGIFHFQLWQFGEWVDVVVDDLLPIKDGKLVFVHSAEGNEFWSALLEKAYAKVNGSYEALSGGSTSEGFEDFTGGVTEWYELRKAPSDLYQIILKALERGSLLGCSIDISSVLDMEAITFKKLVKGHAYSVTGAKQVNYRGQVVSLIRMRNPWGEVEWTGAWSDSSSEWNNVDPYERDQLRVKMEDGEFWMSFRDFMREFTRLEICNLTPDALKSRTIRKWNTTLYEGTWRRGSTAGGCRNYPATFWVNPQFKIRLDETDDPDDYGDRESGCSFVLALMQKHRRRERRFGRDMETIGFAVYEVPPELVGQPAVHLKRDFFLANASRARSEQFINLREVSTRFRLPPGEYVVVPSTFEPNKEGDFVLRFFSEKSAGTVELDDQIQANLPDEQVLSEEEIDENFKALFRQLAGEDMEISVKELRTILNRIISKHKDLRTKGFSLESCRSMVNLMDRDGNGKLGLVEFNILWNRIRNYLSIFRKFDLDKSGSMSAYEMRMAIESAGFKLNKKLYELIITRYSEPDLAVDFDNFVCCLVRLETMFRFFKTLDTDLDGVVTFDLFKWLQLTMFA
T2 sequence (P04632 1-268 partner): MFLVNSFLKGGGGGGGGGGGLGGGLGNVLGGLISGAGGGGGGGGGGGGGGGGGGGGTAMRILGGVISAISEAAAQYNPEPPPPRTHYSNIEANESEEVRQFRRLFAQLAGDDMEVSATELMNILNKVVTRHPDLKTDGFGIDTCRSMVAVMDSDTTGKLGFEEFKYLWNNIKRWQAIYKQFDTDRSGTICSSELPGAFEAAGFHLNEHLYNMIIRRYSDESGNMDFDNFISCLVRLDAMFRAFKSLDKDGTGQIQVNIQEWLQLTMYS

[4] = target: cathepsin B (Homo sapiens, UniProt P07858); assay: Host protease FRET test, cathepsin B; type: biochemical; settings: 33 μM drug, N/I = no FRET inhibition; for inhibition at 33 µM: read-out: Percent Inhibition with 33 μM of drug, Cath B
[5] = target: T3, caspase-1 (Homo sapiens, UniProt P29466); assay: Host protease FRET test, caspase-1; type: biochemical; settings: read-out: Percent Inhibition with 33 μM of drug, Casp 1
T3 construct: purchased BioVision
T3 sequence (P29466 120-404): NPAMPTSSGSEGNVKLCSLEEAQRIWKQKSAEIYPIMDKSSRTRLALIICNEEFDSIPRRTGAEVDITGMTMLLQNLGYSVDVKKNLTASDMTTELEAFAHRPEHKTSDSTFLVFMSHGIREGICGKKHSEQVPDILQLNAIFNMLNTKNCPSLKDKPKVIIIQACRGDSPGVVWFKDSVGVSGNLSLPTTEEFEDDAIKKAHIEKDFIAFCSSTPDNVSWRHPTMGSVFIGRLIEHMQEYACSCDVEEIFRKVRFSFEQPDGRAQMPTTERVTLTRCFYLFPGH

[6] = target: T4, caspase-3 (Homo sapiens, UniProt P42574); assay: Host protease FRET test, caspase-3; type: biochemical; settings: for inhibition at 33 µM: read-out: Percent Inhibition with 33 μM of drug, Casp 3
T4 construct: purchased BioVision
T4 sequence (P42574 29-277): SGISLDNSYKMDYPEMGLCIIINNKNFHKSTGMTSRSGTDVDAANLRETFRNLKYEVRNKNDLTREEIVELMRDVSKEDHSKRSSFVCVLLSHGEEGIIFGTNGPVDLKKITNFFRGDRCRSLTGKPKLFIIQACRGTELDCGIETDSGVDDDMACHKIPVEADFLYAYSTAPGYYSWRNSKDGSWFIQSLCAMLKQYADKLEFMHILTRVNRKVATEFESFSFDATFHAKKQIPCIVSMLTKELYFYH

[7] = system: LF-PA treated mouse macrophage RAW264.7 cells; type: cell-based
[8] = system: Pseudomonas aeruginosa exotoxin A treated RAW264.7 cells; type: cell-based, mouse
[9] = system: Cholera toxin treated RAW264.7 cells; type: cell-based, mouse
[10] = cited from earlier work
[11] = system: LF-PA63 treated RAW264.7 cells; type: cell-based, mouse
[12] = 33 μM drug, FRET, N/I = no FRET inhibition

T1 sequence (P09958 108-794): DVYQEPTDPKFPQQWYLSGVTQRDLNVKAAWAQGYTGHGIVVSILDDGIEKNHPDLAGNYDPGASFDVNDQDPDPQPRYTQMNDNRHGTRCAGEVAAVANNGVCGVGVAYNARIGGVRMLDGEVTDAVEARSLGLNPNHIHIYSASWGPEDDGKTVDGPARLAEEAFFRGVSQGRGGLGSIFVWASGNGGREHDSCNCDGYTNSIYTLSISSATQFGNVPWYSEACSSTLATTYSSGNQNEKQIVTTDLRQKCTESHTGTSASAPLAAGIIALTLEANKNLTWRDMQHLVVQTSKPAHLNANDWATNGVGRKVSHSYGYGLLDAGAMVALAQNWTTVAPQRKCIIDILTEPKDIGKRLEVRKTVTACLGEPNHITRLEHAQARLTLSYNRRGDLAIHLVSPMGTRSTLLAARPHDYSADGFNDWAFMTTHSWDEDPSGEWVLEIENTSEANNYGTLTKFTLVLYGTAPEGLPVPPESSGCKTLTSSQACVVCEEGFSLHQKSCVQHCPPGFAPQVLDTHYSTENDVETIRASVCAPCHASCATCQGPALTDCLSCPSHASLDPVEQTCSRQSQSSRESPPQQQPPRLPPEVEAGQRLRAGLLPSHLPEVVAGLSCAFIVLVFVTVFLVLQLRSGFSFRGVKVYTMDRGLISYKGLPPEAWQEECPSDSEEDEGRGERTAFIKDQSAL
anthrax LF, sequence (P15917 34-809 limits assumed): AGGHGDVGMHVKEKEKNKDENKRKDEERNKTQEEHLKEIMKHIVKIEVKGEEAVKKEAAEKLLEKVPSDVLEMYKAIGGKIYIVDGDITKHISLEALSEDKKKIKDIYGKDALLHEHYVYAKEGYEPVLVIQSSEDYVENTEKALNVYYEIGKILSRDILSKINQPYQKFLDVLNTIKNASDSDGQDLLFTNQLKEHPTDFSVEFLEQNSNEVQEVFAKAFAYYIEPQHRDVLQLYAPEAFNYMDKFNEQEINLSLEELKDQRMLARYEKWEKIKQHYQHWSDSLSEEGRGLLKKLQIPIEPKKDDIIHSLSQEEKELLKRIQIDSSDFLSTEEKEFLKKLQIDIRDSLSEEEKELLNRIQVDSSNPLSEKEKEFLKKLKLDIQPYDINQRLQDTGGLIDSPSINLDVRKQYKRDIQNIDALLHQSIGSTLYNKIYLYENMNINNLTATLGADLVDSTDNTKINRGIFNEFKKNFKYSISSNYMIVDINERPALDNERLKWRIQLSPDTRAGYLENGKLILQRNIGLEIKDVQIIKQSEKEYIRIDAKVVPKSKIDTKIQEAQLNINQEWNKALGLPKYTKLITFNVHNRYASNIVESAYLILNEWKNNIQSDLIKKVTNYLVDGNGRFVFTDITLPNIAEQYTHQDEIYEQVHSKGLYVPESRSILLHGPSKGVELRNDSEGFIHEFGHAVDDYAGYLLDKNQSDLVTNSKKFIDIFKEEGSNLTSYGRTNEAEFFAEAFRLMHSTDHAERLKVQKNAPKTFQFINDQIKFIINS

Row | Compound | IC50 [1] [nM] | inhibition at 33 µM [1] [%] | inhibition at 33 µM [2, 12] [%] | inhibition at 33 µM [5, 12] [%] | also measured
1 | MPRRRRSSSR [Salmon Sperm Protamine (1-10)] | 298000 ± 10 | 28 ± 1 | – | – | Percent Inhibition with 33 μM of drug, Furin [2, 12]: N/I
2 | CCCCCCCCCCCCCCCC[N+](C)(C)Cc1ccccc1 [Cetalkonium chloride] | 160 ± 90 | 106 ± 1.21 | 8 ± 6.1 | 32 ± 1.17 | inhibition at 33 µM [3, 12]: 68 ± 14.8%; Percent Inhibition with 33 μM of drug, Cath B [4]: N/I; Percent Inhibition with 33 μM of drug, Casp 3 [6, 12]: N/I
3 | RRRRRGGRRRR [Salmon Sperm Protamine (23-33)] | 15000 ± 10 | 93 ± 2.4 | 150 ± 5.3 | – | –
4 | CCCCCCCCCCCC[N+](C)(C)CCOc1ccccc1 [Domiphen bromide] | 290 ± 30 | 103 ± 0.82 | 7 ± 6.64 | 17 ± 2.17 | Percent Inhibition with 33 μM of drug, Calpain [3, 12]: N/I; inhibition at 33 µM [4]: 23 ± 1.5%; Percent Inhibition with 33 μM of drug, Casp 3 [6, 12]: N/I
5 | CCOc1nc2cccc(C(=O)OC(C)OC(=O)OC3CCCCC3)c2n1Cc1ccc(-c2ccccc2-c2nnn[nH]2)cc1 (stereo not shown) [Candesartan cilexetil] | 400 ± 20 | 100 ± 0.07 | 88 ± 0.12 | 16 ± 0.1 | Percent Inhibition with 33 μM of drug, Calpain [3, 12]: N/I; inhibition at 33 µM [4]: 10 ± 3.1%; Percent Inhibition with 33 μM of drug, Casp 3 [6, 12]: N/I
6 | CCCCCCCCCCCCCCCC(=O)OC[C@H](O)[C@H]1OC(=O)C(O)=C1O [Ascorbic acid 6-palmitate] | 460 ± 260 | 99 ± 1.9 | 16 ± 0.67 | 18 ± 1.12 | inhibition at 33 µM [3, 12]: 24 ± 19.4%; Percent Inhibition with 33 μM of drug, Cath B [4]: N/I; inhibition at 33 µM [6, 12]: 88 ± 2.9%; Protection against LF-PA mediated cell killing [7]: complete protection; Protection against PE-mediated cell killing [8]: substantial protection; Protection against CT-mediated cell killing [9]: substantial protection; Critical Micelle Concentration (CMC) [10]: 0.8 mM
7 | QRQRSRRRRRRSCQTRR [Human Sperm Protamine (18-34)] | 24000 ± 150 | 72 ± 2.1 | – | – | –
8 | MPRRRRSSSRPVRRRRRPRVSR [Salmon Sperm Protamine (1-22)] | 1000 ± 40 | 98 ± 0.6 | 91 ± 1.8 | – | –
9 | CSCC[C@H](N)C(=O)N[C@@H](C)C(=O)N[C@@H](CCCNC(=N)N)C(=O)N[C@@H](Cc1ccc(O)cc1)C(=O)N[C@@H](CCCNC(=N)N)C(=O)N[C@@H](CS)C(=O)N[C@@H](CS)C(=O)N[C@@H](CCCNC(=N)N)C(=O)N[C@@H](CO)C(=O)N[C@@H](CCC(N)=O)C(=O)N[C@@H](CO)C(=O)N[C@@H](CCCNC(=N)N)C(=O)N[C@@H](CO)C(=O)N[C@@H](CCCNC(=N)N)C(=O)N[C@@H](Cc1ccc(O)cc1)C(=O)N[C@@H](Cc1ccc(O)cc1)C(=O)N[C@@H](CCCNC(=N)N)C(=O)O [Human Sperm Protamine (1-17)] (H-MARYRCCRSQSRSRYYR-OH; N-terminus and C-terminus assumed) | – | 37 ± 0.7 | – | – | –
10 | CCCCCCCCCCCCOS(=O)(=O)O [Sodium lauryl sulfate] | 2900 ± 80 | 93 ± 0.57 | – | – | inhibition at 33 µM [2]: 2 ± 4.56%; inhibition at 33 µM [3]: 95 ± 6.02%; inhibition at 33 µM [5]: 7 ± 3.06%; inhibition at 33 µM [6]: 83 ± 2.7%; Critical Micelle Concentration (CMC) [10]: 8 mM
11 | CCCCC(CC)COC(=O)CC(C(=O)OCC(CC)CCCC)S(=O)(=O)O (stereo not shown) [Docusate sodium] | 670 ± 50 | 95 ± 0.28 | 69 ± 0.13 | 35 ± 0.01 | inhibition at 33 µM [3, 12]: 130 ± 0.19%; Percent Inhibition with 33 μM of drug, Cath B [4]: N/I; Percent Inhibition with 33 μM of drug, Casp 3 [6, 12]: N/I
12 | PVRRRRRPRVSRRRRRRGGRRRR [Salmon Sperm Protamine (11-33)] | 10000 ± 40 | 99 ± 0.2 | 86 ± 1.2 | – | –
13 | MPRRRRSSSRPVRRRRRPRVSRRRRRRGGRRRR [Salmon Sperm Protamine] | – | 107 ± 1.4 | 96 ± 1.2 | – | inhibition at 33 µM [4]: 65 ± 0.5%; inhibition at 33 µM [6, 12]: 87 ± 2.8%; Protection against LF-PA mediated cell killing [7]: complete protection; Protection against cell death induced by LF and PA63 [11]: reduces cellular sensitivity; also recorded: effectively protected all cells; Protection against PE-mediated cell killing [8]: substantial protection; Protection against CT-mediated cell killing [9]: substantial protection
14 | CSCC[C@H](NC(=O)[C@H](C)NC(=O)[C@@H](N)CCCNC(=N)N)C(=O)N[C@@H](CCCNC(=N)N)C(=O)N[C@@H](CS)C(=O)N[C@@H](CS)C(=O)N[C@@H](CCCNC(=N)N)C(=O)N1CCC[C@H]1C(=O)N[C@@H](CCCNC(=N)N)C(=O)N[C@@H](Cc1ccc(O)cc1)C(=O)N[C@@H](CCCNC(=N)N)C(=O)N1CCC[C@H]1C(=O)N[C@@H](CCCNC(=N)N)C(=O)N[C@@H](CS)C(=O)N[C@@H](CCCNC(=N)N)C(=O)N[C@@H](CCCNC(=N)N)C(=O)N[C@@H](Cc1c[nH]cn1)C(=O)O [Human Sperm Protamine (35-51)] (H-RAMRCCRPRYRPRCRRH-OH; N-terminus and C-terminus assumed) | – | 55 ± 0.9 | – | – | –
15 | CCCCCCCCCCCCc1ccccc1S(=O)(=O)O [Sodium dodecyl benzenesulfonate] | – | 104 ± 0.4 | 6 ± 3.34 | 14 ± 2.06 | IC50 ([1]; read-out: LF IC50): 590 ± 80 nM; inhibition at 33 µM [3, 12]: 26 ± 7.01%; inhibition at 33 µM [4]: 96 ± 2.5%; inhibition at 33 µM [6, 12]: 77 ± 2.5%
16 | PVRRRRRPRVSR [Salmon Sperm Protamine (11-22)] | 5000 ± 130 | 95 ± 0.1 | 84 ± 33 | – | –
17 | MARYRCCRSQSRSRYYRQRQRSRRRRRRSCQTRRRAMRCCRPRYRPRCRRH (cysteines drawn unpaired) [Human Sperm Protamine (1-51)] | – | 88 ± 1.2 | 97 ± 1.7 | – | –
